# Laboratory results published in PMC11597518, “Pharmacometabolomics Approach to Explore Pharmacokinetic Variation and Clinical Characteristics of a Single Dose of Desvenlafaxine in Healthy Volunteers” (Pharmaceutics, 2024).
# Several values for one entry are separate records, joined by “and”; a condition that tells them apart may be missing. Equal entries are not always repeated. Where two headings read alike, the source gives them in different places.
# Columns and labels:
# [1] = Single-dose (Pristiq 100 mg, oral) pharmacokinetics in healthy volunteers, plasma LC-MS/MS, non-compartmental; format: in vivo, human
# Excerpt: The present study was nested in a single-dose, open-label, randomized, pharmaco-bioequivalence study performed under biosafety and ethical standards. The data used were derived from 35 healthy volunteers who received the reference drug (Pristiq®, by Pfizer, Newbridge–Ireland) and who were selected for the study after assessment of their health status via clinical evaluation and a comprehensive set of laboratory tests. The same parameters were used to monitor adverse events post study.
# The analytical method was validated according to the respective resolution of the Agência Nacional de Vigilância Sanitária [Brazilian Public Health Surveillance Agency] [9]. The study used an LC-MS/MS system to verify quantification and calculate pharmacokinetic parameters and performed chromatographic separations in an LC-20AD analytical pump (Shimadzu-Kyoto, Japan) using a SIL-20A HT autosampler (Shimadzu-Kyoto, Japan), coupled with mass spectrometry analyses using a Quattro Micro (Micromass, Newcastle, UK) mass spectrometer equipped with an electrospray ionization (ESI) source. […] was detected via a multiple reaction monitoring (MRM) transition of 264.33 > 58.15, and orphenadrine was detected via an MRM transition of 270.32 > 181.26. Data was acquired using MassLynx 4.1 (Waters, Newcastle, UK). More information on the validation method can be found in the Supplementary Materials, including chromatograms for the selectivity assay (Figure S1). Pharmacokinetic parameters were calculated employing a non-compartmental statistic using WinNonLin 8.3 software (Pharsight, New Jersey, USA).
# Volunteers and Study Design
# The study started with 48 enrolled participants. Of these, 13 participants desisted after drug administration. Of the 35 remaining participants, 23 different adverse events were reported for some of them.
# The reference formulation was desvenlafaxine succinate monohydrate controlled-release coated tablet of 100 mg Pristiq® with administration of one single-dose tablet. The volunteers were hospitalized at 7:30 p.m. and had supper before 9:30 p.m. After an overnight fast, they received (at ∼5:40 a.m.) a tablet of 100 mg desvenlafaxine succinate monohydrate with 200 mL of water. The volunt eers then fasted for 4 h, after which period a standard lunch was served. A specific high-calorie diet was administered thirty minutes before taking the medication; Lunch: 4 hours after taking the medication; Afternoon snack:
# 8 hours after taking the medication; Dinner: 10 hours after taking the medication.
# It was necessary to observe the ethical principle of non-maleficence due to the adverse event of nausea being considered very common (≥ 10%). the antiemetic (Dramin® B6 DL - IV - 30 mg / 100 mL saline / 30 minutes) was administered twice: the first dose immediately after administration of the study medication and a second dose 5:00 hours after administration of the study medication.
# At 2 h before and 6, 8 and 12 h after the dose administration, vital signs were checked.
# The recruitment period was 24 h, during which period, blood samples (8 mL) from a suitable antecubital vein were collected, post-dosing via an indwelling catheter, into […]
# samples were centrifuged at ∼2,000×g for 10 min at 4°C, and the plasma was stored at - 70°C until assayed. Samples were handled under yellow light, due to the photosensitivity […]
# Determination of Pharmacokinetic Profile by LC-MS/MS
# Chromatographic separations were performed in an LC-20AD analytical pump and SIL-20A HT autosampler from Shimadzu. The stationary phase employed a Luna AgilLuna Agilent Polaris 5 µm C18-A 50 x 2,0mm column (Phenomenex). The mobile phase consisted of a solution of 10 mM ammonium acetate with 0.1% formic acid (Phase A) and acetonitrile with 0.1% formic acid (Phase B), flowing at 0.3 mL/min in proportion (2:8). The autosampler was maintained at 22°C, with an injection volume of 10 µl and 2.2- […]
# Mass spectrometry was conducted on a Quattro Micro mass spectrometer from […]
# [2] = Adverse events monitored by clinical evaluation and laboratory tests after single dose; format: in vivo, human
# Excerpt: The present study was nested in a single-dose, open-label, randomized, pharmaco-bioequivalence study performed under biosafety and ethical standards. The data used were derived from 35 healthy volunteers who received the reference drug ([…]®, by Pfizer, Newbridge-Ireland) and who were selected for the study after assessment of their health status via clinical evaluation and a comprehensive set of laboratory tests. The same parameters were used to monitor adverse events post study. At the beginning and end of the study, all participants underwent clinical evaluation and laboratory tests using the reference values proposed by […] or without clinical significance, according to a medical report. A complete summary of participants' characteristics is available in Table S1. Clinical and laboratory characteristics outside the normal referential criteria were reported as adverse events (Table S2). page 3: Pharmaceutics 2024, 16, 1385 3 of 6 1. Supplementary Methods Volunteers and Study Design The study started with 48 enrolled participants. Of these, 13 participants desisted after drug administration. Of the 35 remaining participants, 23 different adverse events were reported for some of them. The reference formulation was desvenlafaxine succinate monohydrate controlled- release coated tablet of 100 mg […]® with administration of one single-dose tablet. The volunteers were hospitalized at 7:30 p.m. and had supper before 9:30 p.m. After an overnight fast, they received (at ∼5:40 a.m.) a tablet of 100 mg desvenlafaxine succinate monohydrate with 200 mL of water. The volunt eers then fasted for 4 h, after which period a standard lunch was served. A specific high-calorie diet was administered thirty minutes before taking the medication; Lunch: 4 hours after taking the medication; Afternoon snack: 8 hours after taking the medication; Dinner: 10 hours after taking the medication. It was necessary to observe the ethical principle of non-maleficence due to the adverse event of nausea being considered very common (≥ 10%). the antiemetic ([…] - 30 mg / 100 mL saline / 30 minutes) was administered twice: the first dose immediately after administration of the study medication and a second dose 5:00 hours after administration of the study medication. At 2 h before and 6, 8 and 12 h after the dose administration, vital signs were checked. The recruitment period was 24 h, during which period, blood samples (8 mL) from a suitable antecubital vein were collected, post-dosing via an indwelling catheter, into Heparin lithium-containing tubes at 0, 1:00, 2:00, 3:00, 4:00, 5:00, 6:00, 6:15, 6:30, 6:45, 7:00, 7:15, 7:30, 7:45, 8:00, 8:20, 8:40, 9:00, 10:00, 12:00, 24:00, and 36:00, 48:00, 72.0h. The blood samples were centrifuged at ∼2,000×g for 10 min at 4°C, and the plasma was stored at - 70°C until assayed. Samples were handled under yellow light, due to the photosensitivity of the drug. Determination of Pharmacokinetic Profile by LC-MS/MS Chromatographic separations were performed in an LC-20AD analytical pump and SIL-20A HT autosampler from Shimadzu. The stationary phase employed a Luna AgilLuna Agilent Polaris 5 μm […] 50 x 2,0mm column (Phenomenex). The mobile phase consisted of a solution of 10 mM ammonium acetate with 0.1% formic acid (Phase A) and acetonitrile with 0.1% formic acid (Phase B), flowing at 0.3 mL/min in proportion (2:8). The autosampler was maintained at 22°C, with an injection volume of 10 μl and 2.2- minute duration. Mass spectrometry was conducted on a Quattro Micro mass spectrometer from Micromass, equipped with an electrospray ionization (ESI) source. […]
# [3] = design: method as in doi:10.4172/jbb.1000130; settings: cited from earlier work
# [4] = design: method as in doi:10.4172/jbb.1000130; settings: cited from earlier work; remark: listed apart in the source
# [5] = test system: muscarinic–cholinergic receptors; design: method as in PMID 20694066; settings: cited from earlier work
# [6] = test system: H1-histaminergic receptors; design: method as in PMID 20694066; settings: cited from earlier work
# [7] = test system: α1-adrenergic receptors; design: method as in PMID 20694066; settings: cited from earlier work
# [8] = test system: monoamine oxidase; design: method as in PMID 20694066; settings: cited from earlier work
# [9] = cited from earlier work
# [10] = 35 healthy volunteers, single oral 100 mg Pristiq, plasma
# [11] = 35 participants, single 100 mg dose
smiles,measurement,setting,value
"CN(C)CC(c1ccc(O)cc1)C1(O)CCCCC1 (stereo not shown) [desvenlafaxine, O-desmethylvenlafaxine]","AUC 0-t, Maximum",[1]; [10],"10,338.49 h*ng/mL"
same,"AUC 0-t, Minimum",[1]; [10],2711.68 ng·h/mL
same,"Cmax, Maximum",[1]; [10],469.15 ng/mL
same,"Cmax, Minimum",[1]; [10],123.16 ng/mL
same,"Kel, Maximum",[1]; [10],0.11 h⁻¹
same,"Kel, Minimum",[1]; [10],0.06 h⁻¹
same,"T ½, Maximum",[1]; [10],12.00 h
same,"T ½, Minimum",[1]; [10],6.63 h
same,"Tmax, Maximum",[1]; [10],12.00 h
same,"Tmax, Minimum",[1]; [10],4.00 h
same,AUC(0-t),"[1]; human, plasma, po, 100 mg, 35 healthy volunteers, single oral 100 mg Pristiq, plasma, read-out: AUC 0-t, Mean",6050 ng·h/mL
same,AUC(0-t),"[1]; human, plasma, po, 100 mg, 35 healthy volunteers, single oral 100 mg Pristiq, plasma, read-out: AUC 0-t, Median",5780 ng·h/mL
same,Cmax,"[1]; human, plasma, po, 100 mg, 35 healthy volunteers, single oral 100 mg Pristiq, plasma, read-out: Cmax, Mean",290 ng/mL
same,Cmax,"[1]; human, plasma, po, 100 mg, 35 healthy volunteers, single oral 100 mg Pristiq, plasma, read-out: Cmax, Median",276 ng/mL
same,k el,"[1]; human, plasma, po, 100 mg, 35 healthy volunteers, single oral 100 mg Pristiq, plasma, read-out: Kel, Mean (converted)",2.22e-05 s⁻¹
same,k el,"[1]; human, plasma, po, 100 mg, 35 healthy volunteers, single oral 100 mg Pristiq, plasma, read-out: Kel, Median (converted)",1.94e-05 s⁻¹
same,half-life,"[1]; human, plasma, po, 100 mg, 35 healthy volunteers, single oral 100 mg Pristiq, plasma, read-out: T ½, Mean (converted)",9.43 h
same,half-life,"[1]; human, plasma, po, 100 mg, 35 healthy volunteers, single oral 100 mg Pristiq, plasma, read-out: T ½, Median (converted)",9.35 h
same,Tmax,"[1]; human, plasma, po, 100 mg, 35 healthy volunteers, single oral 100 mg Pristiq, plasma, read-out: Tmax, Mean",7.4 h
same,Tmax,"[1]; human, plasma, po, 100 mg, 35 healthy volunteers, single oral 100 mg Pristiq, plasma, read-out: Tmax, Median",7.5 h
same,k el,"[1]; human, plasma, po, 100 mg, individual participants, single oral 100 mg Pristiq, read-out: Kel (converted)",1.94e-05 s⁻¹
same,half-life,"[1]; human, plasma, po, 100 mg, individual participants, single oral 100 mg Pristiq, read-out: T1/2 (converted)",10.1 h
same,Tmax,"[1]; individual participants P1-P35, single oral 100 mg Pristiq",6.50 h and 8.67 h and 6.25 h and 4.00 h and 6.00 h and 8.33 h and 6.75 h and 7.00 h and 10.00 h and 5.00 h and 7.75 h and 12.00 h and 9.00 h
same,"Alanine Aminotransferase Increased, events count",[2]; [11],3
same,"Altered Erythrogram, events count",[2]; [11],1
same,"Altered Leukogram, events count",[2]; [11],3
same,"Anxiety, events count",[2]; [11],1
same,"Aspartate Transaminase Increased, events count",[2]; [11],5
same,"Cephalea, events count",[2]; [11],3
same,"Diarrhea, events count",[2]; [11],1
same,"General malaise, events count",[2]; [11],6
same,"Incresead triglycerides, events count",[2]; [11],2
same,"Leukocyturia, events count",[2]; [11],2
same,"Nausea, events count",[2]; [11],5
same,"Syncope, events count",[2]; [11],1
same,"Total Cholesterol Increased, events count",[2]; [11],1
same,"Vomiting, events count",[2]; [11],6
same,"Alanine Aminotransferase Increased, intensity","[2]; human, in vivo",Mild
same,"Altered Erythrogram, intensity","[2]; human, in vivo",Mild
same,"Altered Leukogram, intensity","[2]; human, in vivo",Mild
same,"Anxiety, intensity","[2]; human, in vivo",Mild
same,"Aspartate Transaminase Increased, intensity","[2]; human, in vivo",Mild
same,"Cephalea, intensity","[2]; human, in vivo",Mild
same,"Diarrhea, intensity","[2]; human, in vivo",Mild
same,"General malaise, intensity","[2]; human, in vivo",Mild
same,"Incresead triglycerides, intensity","[2]; human, in vivo",Mild
same,"Leukocyturia, intensity","[2]; human, in vivo",Mild
same,"Nausea, intensity","[2]; human, in vivo",Mild
same,"Syncope, intensity","[2]; human, in vivo",Mild
same,"Total Cholesterol Increased, intensity","[2]; human, in vivo",Mild
same,"Vomiting, intensity","[2]; human, in vivo",Mild
same,volume of distribution,[3]; after intravenous administration,3.4 L/kg
same,excreted as the glucuronide metabolite,[3],~ 19%
same,"excreted as the oxidative metabolite (N,O-didesmethylvenlafaxine)",[3],< 5%
same,excreted unchanged,[3],~ 45%
same,mean half-life,[3],approximately 11 h
same,bioavailability,[3]; oral intake,80%
same,time to maximum plasma concentrations (Cmax),[3]; oral intake,7.5 h
same,plasma protein binding,[4],30%
same,effect on muscarinic–cholinergic receptors,[5],does not significantly affect
same,effect on H1-histaminergic receptors,[6],does not significantly affect
same,effect on α1-adrenergic receptors,[7],does not significantly affect
same,inhibition of monoamine oxidase,[8],nor does it inhibit
same,blood cholesterol and triglyceride levels,[9],can increase
same,participants with increased blood pressure,[9]; five participants of a clinical study,10%
same,systolic and diastolic blood pressure change,[9]; short-term desvenlafaxine treatment,small but statistically significant increases
same,frequency of the adverse event nausea (very common),"[9]; stated as known frequency, no reference given",≥ 10%
